Laboratory results from ChEMBL document CHEMBL1201862, “PubChem BioAssay data set” (2004).
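Values below derive from 48-hour exposures of cells grown in 96-well plates, with endpoints linearly interpolated between the two concentrations bracketing the appropriate inhibition level. Here, GI50 denotes the concentration required for 50% inhibition of growth.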 Active and inactive are the calls of the source. Rule as the data show it: active = GI50 up to about 1.1 µM and inactive = higher.

Legend:
Experiment in all cases: DTP human tumour cell line panel, 48 h
HCC 2998 = test system: HCC 2998
SF-295 = test system: SF-295
KM12 = test system: KM12
EKVX = test system: EKVX
SK-MEL-28 = test system: SK-MEL-28
SF-268 = test system: SF-268
UACC-62 = test system: UACC-62
A549 = test system: A549
HOP-92 = test system: HOP-92
COLO 205 = test system: COLO 205
OVCAR-5 = test system: OVCAR-5
MOLT-4 = test system: MOLT-4
SK-OV-3 = test system: SK-OV-3
A498 = test system: A498
786-0 = test system: 786-0
UACC-257 = test system: UACC-257
CCRF-CEM = test system: CCRF-CEM
CAKI-1 = test system: CAKI-1
OVCAR-4 = test system: OVCAR-4

| SMILES | GI50 (HCC 2998) | GI50 (SF-295) | GI50 (KM12) | GI50 (EKVX) | GI50 (SK-MEL-28) | GI50 (SF-268) | GI50 (UACC-62) | GI50 (A549) | GI50 (HOP-92) | GI50 (COLO 205) | GI50 (OVCAR-5) | GI50 (MOLT-4) | GI50 (SK-OV-3) | GI50 (A498) | GI50 (786-0) | GI50 (UACC-257) | GI50 (CCRF-CEM) | GI50 (CAKI-1) | GI50 (OVCAR-4) |
| --- | --- | --- | --- | --- | --- | --- | --- | --- | --- | --- | --- | --- | --- | --- | --- | --- | --- | --- | --- |
| O=c1c2cc(Br)ccc2nc(CCl)n1-c1ccc(O)c([N+](=O)[O-])c1 | 19.9 µM (inactive) | 16.3 µM (inactive) | 19 µM (inactive) | 17.5 µM (inactive) | 17.6 µM (inactive) | 20.8 µM (inactive) | 26.6 µM (inactive) | 22.4 µM (inactive) | 29.2 µM (inactive) | 20.3 µM (inactive) | 63.5 µM (inactive) | 23.1 µM (inactive) | 37.8 µM (inactive) | 20.1 µM (inactive) | 16.1 µM (inactive) | 19.1 µM (inactive) | 22.4 µM (inactive) | 21.7 µM (inactive) | 18.7 µM (inactive) |
| OCC1OC(c2nc(C3=NCCCN3)cs2)C(O)C1O (stereo not given) | > 100 µM (inactive) | > 10 µM (inactive) | > 10 µM (inactive) | > 100 µM (inactive) | > 100 µM (inactive) | > 100 µM (inactive) | > 100 µM (inactive) | > 100 µM (inactive) | > 100 µM (inactive) | > 100 µM (inactive) | > 100 µM (inactive) | > 100 µM (inactive) | > 100 µM (inactive) | > 100 µM (inactive) | > 100 µM (inactive) | > 100 µM (inactive) | > 100 µM (inactive) | > 100 µM (inactive) | > 100 µM (inactive) |
| COC(=O)/C([Se]c1c(C)cc(C)cc1C)=C(/[Se]c1c(C)cc(C)cc1C)C(=O)OC | > 100 µM (inactive) | > 100 µM (inactive) | > 100 µM (inactive) | > 100 µM (inactive) |  | > 100 µM (inactive) | > 100 µM (inactive) | > 100 µM (inactive) | 68.4 µM (inactive) | > 100 µM (inactive) | > 100 µM (inactive) | 47.3 µM (inactive) | > 100 µM (inactive) | > 100 µM (inactive) | > 100 µM (inactive) | > 100 µM (inactive) | > 100 µM (inactive) | > 100 µM (inactive) | > 100 µM (inactive) |
| CN(/N=C/c1cccc2cccnc12)c1ccc([N+](=O)[O-])cc1 | > 100 µM (inactive) | > 100 µM (inactive) | > 100 µM (inactive) | > 100 µM (inactive) | > 100 µM (inactive) | > 100 µM (inactive) | > 100 µM (inactive) | 48.1 µM (inactive) | > 100 µM (inactive) | > 100 µM (inactive) | > 100 µM (inactive) | > 100 µM (inactive) | 43.1 µM (inactive) | > 100 µM (inactive) | > 100 µM (inactive) | > 100 µM (inactive) | > 100 µM (inactive) | > 100 µM (inactive) |  |
| CCOc1cccc2nc3cccc(C(=O)NCCN(C)C)c3nc12 | 0.946 µM (active) | 1.53 µM (inactive) | 0.867 µM (active) | 2.25 µM (inactive) | 1.93 µM (inactive) |  | 1.47 µM (inactive) | 0.942 µM (active) | 1.39 µM (inactive) | 0.632 µM (active) | 2.02 µM (inactive) | 0.333 µM (active) | 7.43 µM (inactive) | 0.74 µM (active) | 2.51 µM (inactive) | 1.95 µM (inactive) |  | 3.16 µM (inactive) | 1.19 µM (inactive) |
| N/C(=N\Nc1cccc(Cl)c1)c1cccnc1 | 36 µM (inactive) | 35.7 µM (inactive) | 30 µM (inactive) | 40.6 µM (inactive) | 72.8 µM (inactive) | 65.3 µM (inactive) | 22.8 µM (inactive) | 52.7 µM (inactive) | > 68.7 µM (inactive) | 29 µM (inactive) | 41.3 µM (inactive) | 28.3 µM (inactive) | > 100 µM (inactive) | 22.2 µM (inactive) | 38.2 µM (inactive) | 32.3 µM (inactive) | 18.6 µM (inactive) | 3.49 µM (inactive) | 13.7 µM (inactive) |
| CSc1ccc(OCC2OC2O)cc1 (stereo not given) | > 86.3 µM (inactive) | 41.1 µM (inactive) | 36.2 µM (inactive) | > 93.1 µM (inactive) |  |  | 47.9 µM (inactive) | 42.3 µM (inactive) | > 58.2 µM (inactive) | 16.5 µM (inactive) | > 94.6 µM (inactive) | 19.4 µM (inactive) | > 100 µM (inactive) | 28.1 µM (inactive) | 66.4 µM (inactive) | 41.2 µM (inactive) | 21.7 µM (inactive) | > 50.9 µM (inactive) | 30.8 µM (inactive) |
| CC(=O)OCC1=C(CCC#N)N2C(=O)C(NC(=O)Cc3cccs3)C2[S+]([O-])C1 (stereo not given) | > 100 µM (inactive) | > 100 µM (inactive) | > 100 µM (inactive) | > 100 µM (inactive) | > 100 µM (inactive) | > 100 µM (inactive) | > 100 µM (inactive) | > 100 µM (inactive) | > 100 µM (inactive) | > 100 µM (inactive) | > 100 µM (inactive) | > 100 µM (inactive) | > 100 µM (inactive) | > 100 µM (inactive) | > 100 µM (inactive) | > 100 µM (inactive) | > 100 µM (inactive) | > 100 µM (inactive) | > 100 µM (inactive) |
| O=c1oc2c3ccc4ccccc4c3n(CCN3CCCCC3)c2c2ccccc12 | 80.5 µM (inactive) | 16.8 µM (inactive) | 79.1 µM (inactive) | > 87.5 µM (inactive) | > 71.6 µM (inactive) | 31.4 µM (inactive) | 36.3 µM (inactive) | 15.6 µM (inactive) | > 100 µM (inactive) | 14.8 µM (inactive) | > 100 µM (inactive) | 2.46 µM (inactive) | 43.1 µM (inactive) |  | 10.3 µM (inactive) | > 62.5 µM (inactive) | 9.35 µM (inactive) | 48.2 µM (inactive) | 23.8 µM (inactive) |
| Cl[Si]1(Cl)Oc2ccccc2O[Si](Cl)(Cl)Oc2ccccc2O1 | 20.7 µM (inactive) | 31.3 µM (inactive) | 34.3 µM (inactive) | 31 µM (inactive) | 33.3 µM (inactive) | 15 µM (inactive) | 5.08 µM (inactive) | 14.3 µM (inactive) | 17.7 µM (inactive) | 13.8 µM (inactive) | 27.7 µM (inactive) | 3.25 µM (inactive) | 54.3 µM (inactive) | 36.2 µM (inactive) | 8.45 µM (inactive) |  | 1.45 µM (inactive) | 28.4 µM (inactive) | 11.8 µM (inactive) |
| Cc1c(Cl)cccc1NC(=O)CC1C(=O)Nc2ccccc2S1(=O)=O (stereo not given) | 16.7 µM (inactive) | 19.7 µM (inactive) |  | 25.6 µM (inactive) | 18.6 µM (inactive) | 19.6 µM (inactive) | 7.52 µM (inactive) | 18.2 µM (inactive) | 15.7 µM (inactive) |  | 20.6 µM (inactive) | 7.83 µM (inactive) |  | 15.3 µM (inactive) | 17.3 µM (inactive) | 24 µM (inactive) | 16.5 µM (inactive) | 19.9 µM (inactive) | 20.5 µM (inactive) |
| CCOC(=O)C1(Br)C(c2ccccc2)NC(=O)NC1(C)Br (stereo not given) | > 100 µM (inactive) | > 100 µM (inactive) | > 100 µM (inactive) | 95.3 µM (inactive) | > 100 µM (inactive) | > 100 µM (inactive) | 52.8 µM (inactive) | > 100 µM (inactive) | > 100 µM (inactive) | 65.3 µM (inactive) | > 100 µM (inactive) | 73.3 µM (inactive) | > 100 µM (inactive) | > 100 µM (inactive) | 38.3 µM (inactive) | 82 µM (inactive) | 33.9 µM (inactive) | 18.5 µM (inactive) |  |
| C=C1CCCC2OC(OC)CCC12 (stereo not given) | > 100 µM (inactive) | > 100 µM (inactive) | > 100 µM (inactive) | > 100 µM (inactive) |  | > 100 µM (inactive) | > 100 µM (inactive) | > 100 µM (inactive) | > 100 µM (inactive) | > 100 µM (inactive) | > 100 µM (inactive) | > 100 µM (inactive) | > 100 µM (inactive) | > 100 µM (inactive) | > 100 µM (inactive) | > 100 µM (inactive) | > 100 µM (inactive) | > 100 µM (inactive) | > 100 µM (inactive) |
| CC1(C(=O)O)CCOc2ccccc21 (stereo not given) | > 100 µM (inactive) | > 100 µM (inactive) |  | > 100 µM (inactive) | > 100 µM (inactive) | > 100 µM (inactive) | > 100 µM (inactive) | > 100 µM (inactive) | > 100 µM (inactive) | > 100 µM (inactive) | > 100 µM (inactive) | > 100 µM (inactive) |  | > 100 µM (inactive) | > 100 µM (inactive) | > 100 µM (inactive) | > 100 µM (inactive) | > 100 µM (inactive) | > 100 µM (inactive) |
| COc1cc2c(c(OC)c1OC)-c1ccc(OC)c(=O)cc1[C@@H](N(C)C=O)CC2 | 0.0168 µM (active) | 0.0146 µM (active) | < 0.01 µM (active) | 9.2 µM (inactive) | < 0.01 µM (active) | 0.0219 µM (active) | 0.0177 µM (active) | 0.0246 µM (active) | 0.0137 µM (active) | 0.0129 µM (active) | > 8.51 µM (inactive) | 0.0212 µM (active) |  | 0.0209 µM (active) | 0.0277 µM (active) |  | 0.0164 µM (active) | 0.0304 µM (active) | 1.37 µM (inactive) |
| CC[C@H](CO)Nc1nc(NCc2ccccc2)c2ncn(C(C)C)c2n1 [SELICICLIB] | 32.2 µM (inactive) | 25.5 µM (inactive) | 5.26 µM (inactive) | 19.1 µM (inactive) |  | 19.8 µM (inactive) | 8.07 µM (inactive) | 13.6 µM (inactive) | 50.9 µM (inactive) | 11.6 µM (inactive) | 42.8 µM (inactive) | 25.1 µM (inactive) | 86.3 µM (inactive) | 48.1 µM (inactive) | 23.3 µM (inactive) |  | > 100 µM (inactive) | 6.17 µM (inactive) | 35.2 µM (inactive) |
